Test results reported in paper PMC9865214 (International Journal of Molecular Sciences, 2023).
Where a name gives a salt, the structure may show the parent alone. One block for each compound: values may come before it.

Columns and labels:
chronic pain states = settings: low-dose NTX, humans; ref [76]; cited from earlier work
From the text: (§1) The similarity of the first two amino acids in the N-terminal region of CART(62-76) to endogenous opioid peptides raises the possibility that this fragment may also bind to […]. Specific binding studies are necessary to answer this question. […] Further studi ...

[1] = tested on: chronic constriction injury model; settings: chronic constriction injury model in rats; ref [75]; cited from earlier work
From the text: as §1

[2] = tested on: TLR4 activation-induced cytokine expression; settings: cited from earlier work
From the text: The synaptic model of hyperalgesia is the LTP at C-fibre synapses. The induction of hyperalgesia and LTP by inducible mediators including TNFα was discovered and called gliogenic LTP [35]. […] The opioid-mediated effect is established by an exogenous peptide if an opioid receptor is activated or if an endogenous opioid release is induced.

[3] = tested on: TLR4 in the TLR4/myeloid differentiation protein-2 heterodimer; settings: ref [68],[69],[70] (NTX, naloxone), [71] (CTAP); cited from earlier work
From the text: (§2) The opioid-mediated effect is established by an exogenous peptide if an opioid receptor is activated or if an endogenous opioid release is induced.

[4] = tested on: inflammatory hyperalgesia; settings: naltrexone alone; ref [67]; cited from earlier work
From the text: as §2

[5] = IPI content of L3-L5 spinal segments by mass spectrometry; type: in vivo, Wistar rat; settings: CART(55-76)-treated inflamed rats; LC-MS/MS; p = 0.032 vs inflamed, p = 0.027 vs naive
Procedure: Three naïve adult male Wistar rats (NG10, NG11, and NG12), 3 rats with unilateral carrageenan-induced hind paw inflammation (GG9, GG10, and GG11), and 3 inflamed rats that received CART(55-76) peptide intrathecally (CG9, CG10, and CG11) were decapitated, and L3–L5 spinal cord segments were removed and snap frozen on dry ice. Tissue was homogenized by sonication in cold acetonitrile (4 °C) in a volume of 10 µL/mg of tissue and centrifuged for 10 min at 14,000 rpm. Supernatant was transferred into Eppendorf tubes and stored at −80 °C until use.
Standard solution of IPI was used for making the calibration curve in the range of 0–50 ng/mL. […] Water containing 0.1% formic acid (eluent A) and acetonitrile containing 0.1% formic acid (eluent B) were used for separation in gradient mode. […] The initial concentration was reached within 0.5 min, and the equilibration time was 5.5 min. The flow rate was 0.5 mL/minute. Column temperature was ambient. The injection volume was 10 µL. […] MRM transitions were identified in product ion scan mode. […] Dwell times were 150 ms for each transition.

[6] = tested on: spinal astrocytes (TNFα secretion); assay: TNFα secretion of LPS-stimulated spinal astrocyte cultures, ELISA; type: cell-based, Wistar rat; settings: 1 μg/mL LPS, control level set to 100%
Procedure: (§3) For the production of spinal cord astrocyte cultures, we followed the procedure already described by Pap et al. with slight modifications. Briefly, the whole spinal cord was removed from 7–8 day-old Wistar rat pups after decapitation and was placed into ice-cold dissecting buffer (136 mM NaCl, 5.2 mM KCl, 0.64 mM Na2HPO4, 0.22 mM KH2PO4, 16.6 mM glucose, 22 mM sucrose, 10 mM HEPES supplemented with 0.06 U/mL penicillin and 0.06 U/mL streptomycin). The isolated spinal cords were cleaned of the meninges, then were placed into fresh dissecting solution containing 0.025 g/mL bovine trypsin (Merck–Sigma-Aldrich), and were incubated at 37 °C for 30 min. Then, the solution was replaced by Minimum Essential Medium (MEM, Gibco, Life Technologies Ltd., Parsely, UK) supplemented with 10% Fetal Bovine Serum (FBS, Hyclone, GE Healthcare Bio-Sciences, Pittsburgh, PA, USA). […]
ELISA was performed as already described. […] Colour reaction was developed by o-phenylene-diamine, and the optical density was measured at λ = 492 nm by ELISA plate reader (Titertek, Uniscan, Flow Laboratories, Helsinki, Finland).
Optical density data were averaged, and the standard error of mean values was calculated for each treatment. […] Statistically significant differences were calculated by one-way ANOVA followed by Student-Newman-Keuls pairwise comparison. […]

[7] = tested on: spinal astrocytes (DPP4, TLR4, caveolin-1); assay: Immunocytochemistry of spinal astrocytes (DPP4, TLR4, caveolin-1); type: cell-based, Wistar rat
Procedure: as §3, with “USA). Finally, cells were suspended by gentle suspension of the tissue pieces by a Pasteur pipette. The cell number was identified, the cell density was set to 1 × 10^6/mL, and the cells were placed into 24 well tissue culture plates (0.5 mL/well). The cell cultures were kept at 37 °C in a 5% CO2 atmosphere, and the medium was replaced the following day and then every second day.” for “USA).”

[8] = tested on: spinal astrocytes (DPP4 expression); assay: DPP4 expression of spinal astrocytes, western blot; type: cell-based, Wistar rat; settings: 1 μg/mL LPS
Procedure: as §3, with “USA). Finally, cells were suspended by gentle suspension of the tissue pieces by a Pasteur pipette. The cell number was identified, the cell density was set to 1 × 10^6/mL, and the cells were placed into 24 well tissue culture plates (0.5 mL/well).” for “USA).”
Fractions of 50 µg protein/lane cytosol were run on 10% polyacrylamide gels. […] Relative protein levels for DPP4 upon 16 h of LPS treatment were quantified by densitometry in three independent astrocyte cultures and analysed by the Kolmogorov-Smirnov statistical test.

[9] = tested on: hyperalgesia provoked by carrageenan or partial nerve ligation; settings: no ref given; cited from earlier work
From the text: Further studies are needed to reveal the signalling mechanism to understand this process.

Compound: O=C1CC[C@@]2(O)[C@H]3Cc4ccc(O)c5c4[C@@]2(CCN3CC2CC2)[C@H]1O5 [NTX, naltrexone hydrochloride]
- Effect in chronic pain states (chronic pain states): effective in a variety of chronic pain states in humans
- Antiallodynic effect [1]: antiallodynic effect
- Effect on TLR4 agonist-induced cytokine production ([2]; ref [72]): did not block the TLR4 agonist-induced cytokine production
- TLR4 antagonism [3]: TLR4 antagonists
- Effect on inflammatory hyperalgesia [4]: no effect on inflammatory hyperalgesia

- IPI concentration of spinal segments, change [5]: increased significantly
Compound: CC[C@H](C)[C@H](N)C(=O)N1CCC[C@H]1C(=O)N[C@H](C(=O)O)[C@@H](C)CC [IPI, isoleucine-proline-isoleucine]

Compound: Cn1c(=O)cc(N2CCC[C@@H](N)C2)n(Cc2ccccc2C#N)c1=O [algogliptin]
- Effect on TLR4 activation-induced cytokine expression ([2]; IL-6, IL-1β and other cytokines, ref [57]): decreased the TLR4 activation-induced IL-6, IL-1β, and other cytokine expression

Compound: lipopolysaccharide [LPS]
- Relative TNFα secretion with LPS [6]: 368 ± 9%
- DPP4 staining intensity ([7]; 1 μg/mL LPS, 6 h): considerably increased
- TLR4 and caveolin-1 subcellular localization ([7]; LPS-stimulated cultures, 1 μg/mL): both proteins were trafficked toward the cell surface
- DPP4 optical density value ([8]; 16 h (control 0.62 ± 0.084), densitometry): 1.08 ± 0.059
- DPP4 expression level increase ([8]; 16 h, vs control cultures, three independent cultures, ± SEM): 74.3 ± 9.6%

Compound: N#C[C@@H]1CCCN1C(=O)CNC12CC3CC(CC(O)(C3)C1)C2 [vildagliptin]
- Antihyperalgesic effect in neuropathic condition [9]: antihyperalgesic effects in a neuropathic condition

Compound: C=CCN1CC[C@]23c4c5ccc(O)c4O[C@H]2C(=O)CC[C@@]3(O)[C@H]1C5 [naloxone]
- TLR4 antagonism [3]: TLR4 antagonists

Compound: D-Phe-Cys-Tyr-D-Trp-Arg-Thr-Pen-Thr-NH2 [CTAP]
- TLR4 antagonism [3]: TLR4 antagonists
